Legend:
[1] = refractive index (Na D-line) (dimensionless); conditions: 101.33 kPa, Liquid
[2] = 101 kPa, Liquid
[3] = refractive index (Na D-line) (dimensionless); xn = mol fraction of the nth substance listed; conditions: 101 kPa, Liquid
[4] = xn = mol fraction of the nth substance listed; conditions: 101 kPa, Liquid

BrC(Br)C(Br)Br [1,1,2,2-tetrabromoethane]
Conditions | mass density, [2] [kg/m3] | refractive index, [1]
293.15 K | 2963.2 | 1.63535
303.15 K | 2939.86 | 1.62926

BrC(Br)C(Br)Br [1,1,2,2-tetrabromoethane] + CCCCCCCCCCO
Conditions | mass density, [4] [kg/m3] | refractive index, [3]
293.15 K, x1 = 0.1023 | 968.19 | 1.44929
293.15 K, x1 = 0.202 | 1114.37 | 1.46226
293.15 K, x1 = 0.3012 | 1272.36 | 1.47639
293.15 K, x1 = 0.4012 | 1446.62 | 1.49207
293.15 K, x1 = 0.5007 | 1636.66 | 1.50944
293.15 K, x1 = 0.6006 | 1847.04 | 1.52888
293.15 K, x1 = 0.7011 | 2081.74 | 1.55057
293.15 K, x1 = 0.8006 | 2340.68 | 1.57518
293.15 K, x1 = 0.9006 | 2632.79 | 1.60321
293.15 K, x1 = 1 | 2963.2 | 1.63535
303.15 K, x1 = 0.1023 | 960.09 | 1.44494
303.15 K, x1 = 0.202 | 1104.97 | 1.45758
303.15 K, x1 = 0.3012 | 1261.57 | 1.47147
303.15 K, x1 = 0.4012 | 1434.34 | 1.48697
303.15 K, x1 = 0.5007 | 1622.78 | 1.50399
303.15 K, x1 = 0.6006 | 1831.45 | 1.52315
303.15 K, x1 = 0.7011 | 2064.32 | 1.54493
303.15 K, x1 = 0.8006 | 2321.36 | 1.56925
303.15 K, x1 = 0.9006 | 2611.47 | 1.59716
303.15 K, x1 = 1 | 2939.86 | 1.62926

BrC(Br)C(Br)Br [1,1,2,2-tetrabromoethane] + CCCCCCCCO
Conditions | mass density, [4] [kg/m3] | refractive index, [3]
293.15 K, x1 = 0.101 | 989.26 | 1.44433
293.15 K, x1 = 0.2013 | 1161.15 | 1.45995
293.15 K, x1 = 0.2997 | 1338.99 | 1.47641
293.15 K, x1 = 0.3994 | 1529.17 | 1.49411
293.15 K, x1 = 0.5002 | 1732.98 | 1.51358
293.15 K, x1 = 0.6003 | 1947.95 | 1.53421
293.15 K, x1 = 0.6998 | 2175.4 | 1.55634
293.15 K, x1 = 0.7998 | 2419.28 | 1.58047
293.15 K, x1 = 0.9011 | 2684.42 | 1.60696
293.15 K, x1 = 1 | 2963.2 | 1.63535
303.15 K, x1 = 0.101 | 980.93 | 1.44015
303.15 K, x1 = 0.2013 | 1151.32 | 1.45566
303.15 K, x1 = 0.2997 | 1327.63 | 1.4717
303.15 K, x1 = 0.3994 | 1516.19 | 1.48929
303.15 K, x1 = 0.5002 | 1718.29 | 1.50826
303.15 K, x1 = 0.6003 | 1931.52 | 1.52869
303.15 K, x1 = 0.6998 | 2157.22 | 1.55075
303.15 K, x1 = 0.7998 | 2399.36 | 1.57464
303.15 K, x1 = 0.9011 | 2662.77 | 1.60101
303.15 K, x1 = 1 | 2939.86 | 1.62926

BrC(Br)C(Br)Br [1,1,2,2-tetrabromoethane] + CCCCCCCO
Conditions | mass density, [4] [kg/m3] | refractive index, [3]
293.15 K, x1 = 0.099 | 1001.11 | 1.44056
293.15 K, x1 = 0.1999 | 1189.38 | 1.45821
293.15 K, x1 = 0.3001 | 1383.2 | 1.47658
293.15 K, x1 = 0.3995 | 1582.25 | 1.49566
293.15 K, x1 = 0.5006 | 1792.24 | 1.51595
293.15 K, x1 = 0.5987 | 2003.6 | 1.5368
293.15 K, x1 = 0.6993 | 2229.07 | 1.55935
293.15 K, x1 = 0.799 | 2461.79 | 1.58311
293.15 K, x1 = 0.8992 | 2706 | 1.60832
293.15 K, x1 = 1 | 2963.2 | 1.63535
303.15 K, x1 = 0.099 | 992.57 | 1.43619
303.15 K, x1 = 0.1999 | 1179.18 | 1.45352
303.15 K, x1 = 0.3001 | 1371.29 | 1.47156
303.15 K, x1 = 0.3995 | 1568.62 | 1.49038
303.15 K, x1 = 0.5006 | 1776.88 | 1.51053
303.15 K, x1 = 0.5987 | 1986.59 | 1.53124
303.15 K, x1 = 0.6993 | 2210.42 | 1.55368
303.15 K, x1 = 0.799 | 2441.56 | 1.57727
303.15 K, x1 = 0.8992 | 2684.21 | 1.60236
303.15 K, x1 = 1 | 2939.86 | 1.62926

From the NIST ThermoML archive (doi:10.1016/j.jct.2005.11.012)
